# Source: patent US12162855B2, “Tetrahydroquinolino derivatives for the treatment of metastatic and chemoresistant cancers” (THE TRUSTEES OF PRINCETON UNIVERSITY, priority 2018, dated 2024)
# Assays:
# SUM159-M1a cells = assay: Bone metastasis xenograft, SUM159-M1a cells by intracardiac injection, BLI; format: in vivo, mouse; conditions: MBE1 IP in conjunction with paclitaxel, intracardiac injection model
# Experimental: All xenograft experiments were conducted on 8-week old female mice (athymic Nu/Nu, or NOD/SCID Gamma). Xenograft experiments were conducted using 125,000 SUM159-M1a cells in 100 μL PBS for tail vein or intracardiac injection. Mice were randomized following injection. Bioluminescent imaging (BLI) was conducted using the IVIS 200 system and retroorbital luciferin injection. For drug treatment, MBE1 (prepared as above) was given to mice via IP injection in conjunction with paclitaxel (5 mg/mL in 10% ethanol, 10% Kolliphor EL, 80% PBS) at the time intervals and dosages indicated in FIG. 5A (tail vein injection) and FIG. 6A (intracardiac injection).
# FIG. 5B is a line graph of lung metastasis, as measured using bioluminescence imaging (BLI), versus time (days), and compares lung metastasis in the presence and absence of MBE1 in the mice from the experiment outlined in FIG. 5A. FIG. 6B is a line graph of bone metastasis, as measured using BLI, versus time (days), and compares bone metastasis in the presence and absence of MBE1 in the mice from the experiment outlined in FIG. 6A.
# [1] = Toxicity experiments in C57Bl6 mice (IP); format: in vivo
# Experimental: All mice were originally ordered from the Jackson Laboratory (Bar Harbor, ME) and breeding was conducted in a specific pathogen-free (SPF) barrier facility. Toxicity experiments were performed on 8-12-week old male and female C57B16 mice. MBE1 was dissolved at 50 mg/mL in DMSO followed by a […] into Kolliphor EL, followed by a 1:5 dilution into PBS to yield a 5 mg/ml MBE1 solution, (10% DMSO, 10% Kolliphor EL, 80% PBS). This was administered via IP injection at ascending doses from 12.5 to 200 mg/kg body mass in a set of 3 mice at 24 h intervals. Body condition score, food uptake, fecal/urine production, behavior and body weight were measured as toxicity readouts. Five mice were then treated every 3 days with 25 mg/kg MBE1 for 18 days.
# MDA-MB-468 cells = assay: Primary tumor xenograft, MDA-MB-468 cells in mammary fat pad; format: in vivo; conditions: 12 days
# Experimental: In yet another xenograft experiment, mice were injected with MDA-MB-468 cells via mammary fat pad, and were randomized following injection. Mice were treated with MBE1.5 (25 mg/kg daily, n=6) or vehicle (n=12), and paclitaxel (12.5 mg/kg every other day) for 12 days. Primary tumor measurements were taken by caliper between each treatment group.
# ALDH1a3 [2] = biological target: T1, ALDH1a3 (Homo sapiens, UniProt P47895); assay: ALDEFLUOR assay in SUM159 cells expressing ALDH isoforms 1a1, 1a2, 1a3, 3a1; format: cell-based; conditions: SUM159 cells expressing ALDH 1a1, 1a2, 1a3 or 3a1
# T1 construct: lentiviral vectors containing either the vector backbone or full-length human Aldh1a3; expressed in transfected cells; host or cells: SUM159-M1a (A1) and SUM159 (A7) breast cancer cells, lentiviral pLex vector, puromycin selection
# T1 sequence (P47895 1-512): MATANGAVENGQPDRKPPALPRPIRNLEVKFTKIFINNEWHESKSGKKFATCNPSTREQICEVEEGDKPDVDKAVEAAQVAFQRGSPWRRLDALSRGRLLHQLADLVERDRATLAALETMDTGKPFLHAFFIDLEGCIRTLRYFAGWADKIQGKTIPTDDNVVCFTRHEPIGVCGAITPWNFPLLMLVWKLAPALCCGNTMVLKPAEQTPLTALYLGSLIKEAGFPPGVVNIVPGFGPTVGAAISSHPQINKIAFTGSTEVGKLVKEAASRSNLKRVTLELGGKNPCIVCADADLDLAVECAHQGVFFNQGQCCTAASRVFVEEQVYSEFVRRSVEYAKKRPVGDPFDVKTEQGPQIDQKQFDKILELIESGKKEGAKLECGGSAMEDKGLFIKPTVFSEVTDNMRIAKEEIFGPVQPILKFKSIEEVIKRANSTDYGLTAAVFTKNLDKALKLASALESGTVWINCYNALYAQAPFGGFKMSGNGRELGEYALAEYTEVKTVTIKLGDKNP
# Experimental: (§1) The coding sequences of Aldh1a1, Aldh1a2, Aldh1a3 and Aldh3a1 were cloned from cDNA made from pooled human reference RNA samples. Cloned sequences flanked by Age1 and Xho1 restriction sites were inserted into the pLex lentiviral plasmid. Clones were sequenced and compared against NCBI expressed sequence tags (ESTs) for accuracy. Viral production of each enzyme was performed by transfection into the 293T packaging cell line using PEI along with PsPax2 and VSVG packaging vectors. Viruses were collected and filtered at 0.45 μm, then cells were transduced using polybrene (8 μg/mL) for 12 hours, followed by culture with 1 μg/mL puromycin for the duration of experiments. All viral transduction and selection was performed on a cell population-wide basis.
# (§2) Cells were counted, centrifuged and resuspended at 1,000,000 cells/mL in ALDEFLUOR™ buffer (Stemcell Technologies). ALDEFLUOR™ substrate (Stemcell Technologies, 1:200) and test compound or 1 mM DEAB were added to cell suspension and incubated at 37° C. for 45 minutes with vortexing every 15 minutes. Cells were centrifuged and resuspended in ALDEFLUOR™ buffer with DAPI at 5 μg/mL. Samples were analyzed with the BD LSR2 flow cytometry platform. Gating was performed using DEAB as a negative control.
# ALDH isoforms 1a1, 1a2, 1a3 and 3a1 were expressed in MCF7 or SUM159 cells, which were subsequently used in an ALDEFLUOR™ assay.
# ALDH1a3 [3] = biological target: T1, ALDH1a3; assay: ALDEFLUOR assay in 293T cells transiently transfected with human Aldh1a3; format: cell-based; conditions: 293T cells transfected with human Aldh1a3
# Experimental: as §1, §2
# SUM159-M1-p44 cells = assay: Lung metastasis xenograft, SUM159-M1-p44 cells by tail-vein injection, BLI; format: in vivo, mouse; conditions: three doses of 50 mg/kg in combination with 25 mg/kg paclitaxel, days 17, 19 and 21
# Experimental: In another xenograft experiment, mice were injected with SUM159-M1-p44 cells via tail-vein injection, as described above, and randomized following injection. Metastatic burden was imaged on day 16 via intravital imaging. Mice were then treated with paclitaxel (25 mg/kg) and either vehicle or MBE1.5 (50 mg/kg) on days 17, 19 and 21. Lung metastatic burden was then imaged on day 22. Signals were normalized to day 16.
compound,measurement,setting,value
"CCc1cnccc1C(=O)Nc1cc2c(cc1F)NC(=O)CC2 [MBE1, 3-ethyl-N-(7-fluoro-2-oxo-1,2,3,4-tetrahydroquinolin-6-yl)isonicotinamide]",bone metastasis by BLI (FIG. 6B),SUM159-M1a cells,effective therapeutic to treat established metastatic disease
same,"chronic toxicity (body condition score, food uptake, fecal/urine production, behavior, body weight)",[1]; 25 mg/kg every 3 days for 18 days,Neither experiment showed any indication of either acute or chronic toxicity
same,"acute toxicity (body condition score, food uptake, fecal/urine production, behavior, body weight)",[1]; ascending doses 12.5 to 200 mg/kg at 24 h intervals,Neither experiment showed any indication of either acute or chronic toxicity
"CCc1ccccc1C(=O)Nc1cc2c(cc1F)NC(=O)CC2 [MBE1.5, 2-ethyl-N-(7-fluoro-2-oxo-1,2,3,4-tetrahydroquinolin-6-yl)benzamide]",complete tumor elimination,MDA-MB-468 cells; 25 mg/kg daily (n=6) with paclitaxel 12.5 mg/kg every other day,tumors of two mice in the MBE1.5 treatment group were completely eliminated
same,"gross toxicity, body mass (FIG. 15A)",MDA-MB-468 cells; 25 mg/kg daily with paclitaxel 12.5 mg/kg every other day,no gross toxicity
same,tumor volume (FIG. 15B),"MDA-MB-468 cells; 25 mg/kg daily with paclitaxel 12.5 mg/kg every other day, MDA-MB-468 primary tumors",caused regression of primary breast tumors
same,"isoform specificity, percentage of ALDEFLUOR-positive SUM159 cells (FIG. 13C)",ALDH1a3 [2],specifically inhibits ALDH1a3 at concentrations below 10 μM
same,inhibition of Aldh1a3 activity (FIG. 2B),ALDH1a3 [3],effective at inhibiting Aldh1a3 activity
same,lung metastasis by BLI (FIG. 14),SUM159-M1-p44 cells,caused regression of established metastatic disease
